Source: US5476874A, “New HIV protease inhibitors” (Merck & Co., Inc., priority 1994, dated 1995)

Target: T1, HIV protease (Human immunodeficiency virus type 1 group M subtype B, UniProt P04585)
T1 construct: the protease expressed in Escherichia coli; made in house; host or cells: Escherichia coli
Test: Assay for Inhibition of Microbial Expressed HIV Protease
Type: biochemical
Settings: protease expressed in Escherichia coli; peptide substrate Val-Ser-Gln-Asn-(betanaphthyl)Ala-Pro-Ile-Val; 50 mM Na acetate, pH 5.5, 30° C., 1 hour; HPLC readout
Description: Assay for Inhibition of Microbial Expressed HIV Protease
Inhibition studies of the reaction of the protease expressed in Escherichia coli with a peptide substrate [Val-Ser-Gln-Asn-(betanaphthyl)Ala-Pro-Ile-Val, 0.5 mg/mL at the time the reaction is initiated] were in 50 mM Na acetate, pH 5.5, at 30° C. for 1 hour. Various concentrations of inhibitor in 1.0 ul DMSO were added to 25 ul of the peptide solution in water. The reaction is initiated by the addition of 15 ul of 0.33 nM protease […] in a solution of 0.133 M Na acetate pH 5.5 and 0.26% bovine serum albumin. The reaction was quenched with 160 ul of 5% phosphoric acid. Products of the reaction were separated by HPLC (VYDAC wide pore 5 cm C-18 reverse phase, acetonitrile gradient, 0.1% phosphoric acid). The extent of inhibition of the reaction was determined from the peak heights of the products.

Structure (SMILES): CC(C)CN(CC(O)CC(Cc1ccccc1)C(=O)NC1c2ccccc2CC1O)C(=O)OCc1ccccc1 [Compound A, N-(2'(R)-hydroxy-1'(S)-indanyl)-2(R)-phenylmethyl-4(S)-hydroxy-5-[((2'''-methyl)propyl)-benzyloxycarbonyl]-amino-pentaneamide]
- IC50: 8 to 9 nM
